Source: patent US20250073210A1, “Use of Ergothioneine for Enhancing Glutathione Level” (priority 2022, published 2025)

Tests used:
[1] = system: normal human epidermal keratinocytes (NHEK); experiment: Preliminary cytotoxicity assay (WST-8 reduction, viability and morphological observations); assay type: cell-based; conditions: human, 24 h
Method: (§1) In the present study, the effects of compound L-Ergothioneine were investigated in normal human epidermal keratinocytes (NHEK) under basal or UV-irradiated conditions. More specifically, the effects of this compound were evaluated using RT-qPCR technology. Extracted mRNA was analyzed using a PCR array (“mQPA-8-Nrf2”) for the analysis of 8 target genes (including 1 housekeeping gene) selected for their role in Nrf2 pathway. Prior to this assay, a preliminary cytotoxicity assay was performed on compound L-Ergothioneine and Resveratrol (reference in basal condition) using a standard WST-8 reduction assay, in order to determine the concentrations to be tested in this study.
(§2) Cell type: Normal human epidermal keratinocytes (NHEK) used at the 3rd passage. Culture conditions: 37° C., 5% CO2. Culture medium: Keratinocyte-SFM optimized for the assay, supplemented with Epidermal Growth Factor Pituitary extract. Assay medium: Keratinocyte-SFM optimized for the assay. Test compound: L-Ergothioneine in ultrapure water. Test concentrations: 0.5, 3 and 30 μM. Reference: Resveratrol. Test concentration: 20 μM.
(§3) Cell type: NHEK in assay medium. Incubation time: 24 hours.
(§4) After treatment, the cells were incubated with WST-8 (highly water-soluble tetrazolium salt) reduced in a water-soluble orange colored product (formazan) by succinate dehydrogenase (mitochondrial enzyme). This transformation is proportional to the number of living cells and their metabolic activity. The optical density (OD) of the extracts at 450 nm was recorded with a spectrometer (VERSAmax, Molecular Devices).

[2] = as above; assay type: cell-based, human; conditions: human
Method: as §1, §2, §3, §4

GCLM = experiment: RT-qPCR PCR array mQPA-8-Nrf2, GCLM expression in NHEK; assay type: cell-based, human
Method: as §1, §2
(§5) Keratinocytes were seeded in 24-well plates and cultured for 24 hours in culture medium and in assay medium for a further 24 hours. The medium was then replaced by assay medium containing or not (control) the compound or Resveratrol and cells were pre-incubated for 24 hours.
(§6) After pre-incubation, the medium was then removed and replaced by a PBS solution. For basal conditions, the plate was kept in the dark during the irradiation time. For irradiated conditions, the cells were irradiated with UVB−275 mJ/cm^2 (+UVA−2 J/cm^2) using a SOL500 Sun Simulator equipped with an H2 filter (Dr. Hönle, AG). After irradiation time, the treatments were renewed, and the cells were incubated for 24 hours. All experimental conditions were performed in n=3. At the end of incubation, the cells were washed in phosphate buffered saline (PBS) solution and immediately frozen at −80° C.
(§7) The expression of markers was analyzed using RT-qPCR method on total RNA extracted from the cell monolayers of each experimental condition (before RNA extraction, the replicates of the same experimental condition were pooled). The analysis of transcripts was performed in n=2 using a PCR array dedicated to research and adapted to ‘screening’ format and targeting 8 genes selected for their role in Nrf2 pathway.
(§8) Total RNA was extracted from each sample using TriPure Isolation Reagent® according to the supplier's instructions. The amount and quality of RNA were evaluated using capillary electrophoresis (Bioanalyzer 2100, Agilent technologies). The complementary DNA (cDNA) was synthetized by reverse transcription of total RNA in presence of oligo(dT) and «Transcriptor Reverse Transcriptase» (Roche Molecular System Inc.). The cDNA quantities were then adjusted before PCR.
(§9) The PCR (Polymerase Chain Reaction) were performed using the «LightCycler®» system (Roche Molecular System Inc.) according to the supplier's instructions. The reaction mix (10 μl final) was prepared as follows: 2.5 μl of cDNA; primers (forward and reverse); reagent mix (Roche) containing taq DNA polymerase, SYBR Green I and MgCl2.
(§10) The incorporation of fluorescence in amplified DNA was continuously measured during the PCR cycles. […] The value selected for RE calculations is the “output point” (Ct) of the fluorescence curve. For a considered marker, the highest is the cycle number; the lowest is the mRNA quantity. The RE value was calculated with the formula: (½^number of cycles)×10^6. The PCR array used in the present study included 1 reference gene (RPS28).

MT1G = experiment: RT-qPCR PCR array mQPA-8-Nrf2, MT1G expression in NHEK; assay type: cell-based, human
Method: as §1, §2, §5, §6, §7, §8, §9, §10

HMOX1 = experiment: RT-qPCR PCR array mQPA-8-Nrf2, HMOX1 expression in NHEK; assay type: cell-based, human
Method: as §1, §2, §5, §6, §7, §8, §9, §10

GCLC = experiment: RT-qPCR PCR array mQPA-8-Nrf2, GCLC expression in NHEK; assay type: cell-based, human
Method: as §1, §2, §5, §6, §7, §8, §9, §10

NQO1 = experiment: RT-qPCR PCR array mQPA-8-Nrf2, NQO1 expression in NHEK; assay type: cell-based, human
Method: as §1, §2, §5, §6, §7, §8, §9, §10

RPS28 = experiment: RT-qPCR PCR array mQPA-8-Nrf2, housekeeping gene RPS28; assay type: cell-based, human
Method: as §1, §2, §5, §6, §7, §8, §9, §10

TXN = experiment: RT-qPCR PCR array mQPA-8-Nrf2, TXN expression in NHEK; assay type: cell-based, human
Method: as §1, §2, §5, §6, §7, §8, §9, §10

Nrf2 pathway = experiment: Gene expression profile of keratinocytes (mQPA-8-Nrf2 array as a whole); assay type: cell-based, human
Method: as §1, §2, §5, §6, §7

TXNRD1 = experiment: RT-qPCR PCR array mQPA-8-Nrf2, TXNRD1 expression in NHEK; assay type: cell-based, human
Method: as §1, §2, §5, §6, §7, §8, §9, §10

[3] = UV-irradiated (UVB-275 mJ/cm^2 +UVA-2 J/cm^2), 0.5 μM
[4] = UV-irradiated (UVB-275 mJ/cm^2 +UVA-2 J/cm^2), 3 μM
[5] = UV-irradiated (UVB-275 mJ/cm^2 +UVA-2 J/cm^2), 30 μM

Structure (SMILES): C[N+](C)(C)[C@@H](Cc1c[nH]c(=S)[nH]1)C(=O)[O-] [L-Ergothioneine, (2S)-3-(2-thioxo-2,3-dihydro-1H-imidazol-4-yl)-2-(trimethylammonio)-propanoate]
- Viability (%) ([1]; 2.2 µM): 105%
- Viability (%) ([1]; 6.7 µM): 101%
- Viability (%) ([1]; 20 µM): 102%
- Viability (%) ([1]; 180 µM): 95%
- Viability (%) ([1]; 4860 µM): 79%
- viability at 24 h, 2.2 µM ([2]; Viability (%)): 97%
- viability at 24 h, 6.7 µM ([2]; Viability (%)): 98%
- viability at 24 h, 20 µM ([2]; Viability (%)): 99%
- viability at 24 h, 60 µM ([2]; Viability (%)): 100%
- viability at 24 h, 180 µM ([2]; Viability (%)): 99%
- viability at 24 h, 540 µM ([2]; Viability (%)): 100%
- viability at 24 h, 1620 µM ([2]; Viability (%)): 89%
- viability at 24 h, 4860 µM ([2]; Viability (%)): 82%
- viability at 24 h, 2.2 µM ([2]; Viability Mean (%)): 100%
- viability at 24 h, 6.7 µM ([2]; Viability Mean (%)): 99%
- viability at 24 h, 20 µM ([2]; Viability Mean (%)): 99%
- viability at 24 h, 60 µM ([2]; Viability Mean (%)): 99%
- viability at 24 h, 180 µM ([2]; Viability Mean (%)): 97%
- viability at 24 h, 540 µM ([2]; Viability Mean (%)): 66%
- viability at 24 h, 1620 µM ([2]; Viability Mean (%)): 92%
- viability at 24 h, 4860 µM ([2]; Viability Mean (%)): 83%
- GCLM % Control RPS28 (GCLM; [3]): 76 % Control
- GCLM % Control RPS28 (GCLM; [4]): 86 % Control
- GCLM % Control RPS28 (GCLM; [5]): 86 % Control
- GCLM % Control RPS28 (GCLM; basal conditions, 0.5 μM): 95 % Control
- GCLM % Control RPS28 (GCLM; basal conditions, 3 μM): 97 % Control
- GCLM % Control RPS28 (GCLM; basal conditions, 30 μM): 98 % Control
- MT1G % Control RPS28 (MT1G; [3]): 81 % Control
- MT1G % Control RPS28 (MT1G; [4]): 94 % Control
- MT1G % Control RPS28 (MT1G; [5]): 102 % Control
- MT1G % Control RPS28 (MT1G; basal conditions, 0.5 μM): 113 % Control
- MT1G % Control RPS28 (MT1G; basal conditions, 3 μM): 99 % Control
- MT1G % Control RPS28 (MT1G; basal conditions, 30 μM): 115 % Control
- HMOX1 % Control RPS28 (HMOX1; [3]): 104 % Control
- HMOX1 % Control RPS28 (HMOX1; [4]): 109 % Control
- HMOX1 % Control RPS28 (HMOX1; [5]): 141 % Control
- HMOX1 % Control RPS28 (HMOX1; basal conditions, 0.5 μM): 86 % Control
- HMOX1 % Control RPS28 (HMOX1; basal conditions, 3 μM): 91 % Control
- HMOX1 % Control RPS28 (HMOX1; basal conditions, 30 μM): 98 % Control
- GCLC % Control RPS28 (GCLC; [3]): 106 % Control
- GCLC % Control RPS28 (GCLC; [4]): 126 % Control
- GCLC % Control RPS28 (GCLC; [5]): 181 % Control
- GCLC % Control RPS28 (GCLC; basal conditions, 0.5 μM): 111 % Control
- GCLC % Control RPS28 (GCLC; basal conditions, 3 μM): 118 % Control
- GCLC % Control RPS28 (GCLC; basal conditions, 30 μM): 140 % Control
- NQO1 % Control RPS28 (NQO1; [3]): 118 % Control
- NQO1 % Control RPS28 (NQO1; [4]): 136 % Control
- NQO1 % Control RPS28 (NQO1; [5]): 207 % Control
- NQO1 % Control RPS28 (NQO1; basal conditions, 0.5 μM): 127 % Control
- NQO1 % Control RPS28 (NQO1; basal conditions, 3 μM): 131 % Control
- NQO1 % Control RPS28 (NQO1; basal conditions, 30 μM): 155 % Control
- RPS28 % Control RPS28 (RPS28; [3]): 100 % Control
- RPS28 % Control RPS28 (RPS28; [4]): 100 % Control
- RPS28 % Control RPS28 (RPS28; [5]): 100 % Control
- RPS28 % Control RPS28 (RPS28; basal conditions, 0.5 μM): 100 % Control
- RPS28 % Control RPS28 (RPS28; basal conditions, 3 μM): 100 % Control
- RPS28 % Control RPS28 (RPS28; basal conditions, 30 μM): 100 % Control
- TXN % Control RPS28 (TXN; [3]): 89 % Control
- TXN % Control RPS28 (TXN; [4]): 99 % Control
- TXN % Control RPS28 (TXN; [5]): 101 % Control
- TXN % Control RPS28 (TXN; basal conditions, 0.5 μM): 87 % Control
- TXN % Control RPS28 (TXN; basal conditions, 3 μM): 83 % Control
- TXN % Control RPS28 (TXN; basal conditions, 30 μM): 98 % Control
- Modulation of the gene expression profile of irradiated keratinocytes (Nrf2 pathway; UVB (+UVA) irradiated, tested at 0.5, 3 and 30 μM): did not induce major modulations
- Effect on gene expression, basal keratinocytes (Nrf2 pathway; basal, lowest tested concentrations): no effect was observed
- Modulation of the gene expression profile of basal keratinocytes (Nrf2 pathway; basal, tested at 0.5, 3 and 30 μM): did not induce major modulations
- Effect on gene expression, irradiated keratinocytes (Nrf2 pathway; irradiated, lowest tested concentrations): no effect was observed
- TXNRD1 % Control RPS28 (TXNRD1; [3]): 99 % Control
- TXNRD1 % Control RPS28 (TXNRD1; [4]): 97 % Control
- TXNRD1 % Control RPS28 (TXNRD1; [5]): 120 % Control
- TXNRD1 % Control RPS28 (TXNRD1; basal conditions, 0.5 μM): 75 % Control
- TXNRD1 % Control RPS28 (TXNRD1; basal conditions, 3 μM): 72 % Control
- TXNRD1 % Control RPS28 (TXNRD1; basal conditions, 30 μM): 82 % Control
